The structures appear in SMILES notation. Like-named read-outs stand apart in the source and are kept apart here.

One data set relates to NMRI mice. On the procedure:
Parallel to this, 500 mg/kg nicotinamide was simultaneously intraperitoneally administered each to the individual dosage groups. 7 days after the beginning of treatment, the blood picture of the individual animals was examined.

Another data set relates to lymphocytes. The data set can be described thus: Vitality of freshly isolated spleen lymphocytes (flow cytometry, propidium iodide / 3,3'-dihexyloxacarbocyanin iodide, 2 days). Type of data set: cell-based, Swiss mouse. The note with it: Mus musculus, Lymphocyte. From the text:
Many cytostatic agents and radiation therapies as well have a cytcotoxic effect not only on tumor cells but also on the blood cell system. This leads to a weakening of the immune defence which can lead to life threatening infections. In addition, this can result in a so-called tumor lyse syndrome which can, lead to the death of the patient by the relatively quick death of large cell masses. In order to test the possibility for a therapeutical use of nicotinic acid and/or nicotinamide for preventing such life threatening conditions by massive cell death, the effect of the substance was tested on freshly isolated lymphocytes as follows:
The spleen of a Swiss mouse served as a lymphocyte source.
The lymphocyte population was isolated from the spleen cell suspension over a ficoll gradient and taken up in IMEM-ZO culture medium with 0,1% dextran 70,000 and 2% foetal calf serum. […] Subsequently, 10,000 cells per each sample were measured on a flow-through cytometer and the percentage amount of vital cells in the population was determined. By means of the dose-response curves, IC50-values were calculated which were also employed in the following Tables for the characterization of the individual substances: […]
A general note: Flow cytometry measures light scatter and fluorescence of single cells or particles in a stream.

In a further data set the test system is THP-1 cells. Nature of the data set: Growth inhibition of THP-1 human leukaemia cells (WST-1 reagent, four days incubation). The note with it: for IC50: Homo sapiens; for effect on the growth-inhibiting effect of K22.097: THP-1 cells, summary of Table 1. It is filed as cell-based. On the procedure: THP-1 cells derived from a human monocytic leukaemia plated at a density of 200,000 cells/ml in 96-well plastic dishes. Cultivation occurred in RPMI 1640 nutrient medium with 10% foetal calf serum (FCS) in a tissue culture incubator with a gas mixture of 5% CO2 and 95% air at a temperature of 37° C. For the individual concentrations and the controls without test substances as well as for the background with nutrient medium but without cells, three-fold batches were done for each. After four days of substance incubation 20 μl WST-1 reagent (Boehringer Mannheim) was respectfully pipetted in each individual well. After 30 to 60 minute incubation in the tissue culture incubator at 37° C. and 5% CO2, the light extinction was measured in an ELISA reader at 450 nm wave length. The backgrounds were each subtracted from the typical measured valves. (The IC50-values (defined as that concentration in which the cell growth was inhibited by 50%) was taken from the dose-response curves and given as a comparative measurement for the activity of the test compounds.
Furthermore, the anti-tumor substance Nr.159 with the internal label K22.175 according to the publication PCT/EP97/03245=WO97/48696 in the form of N-[4-(1-benzoylpiperidin-4-yl)-butyl]-3-(pyridin-3-yl)-acrylamide synthesized by the applicant was included in the experimental examinations. The results obtained therefrom confirm the above described finding on the useful effect according to the invention of the vitamin PP compounds.
(Formazan colour is commonly taken as a measure of viable cells.)

Data set [1] has as its system Cryptic cells of the large intestine. The data set can be described thus: Growth/vitality of primary cryptic cells of the large intestine (crystal violet, MTT-test, 4 days treatment). It is filed as cell-based. From the text:
Cryptic cells of the large intestine were isolated according to the method of Booth et al. (1995) with slight modifications. The removed large intestine was cut into pieces, the parts were finally cut after several-fold washing and digested with collagenase and dispase. Subsequently, the larger tissue pieces remaining in the suspension were sedimented, the supernatant was decanted and stored. The pellet was digested again under vigorous shaking with medium in order to release additional cryptic cells. After sedimentation, the supernatant was poured off again, combined with the first fraction and the cryptic cells were centrifuged at 50×g. After a further washing step, the centrifuge cryptic cells were suspended in culture medium and seeded at a density of 800 cells per well in 24-well-cultured dishes which were previously coated with collagen. The cells were incubated at 37° C. in a saturated water vapour atmosphere with 92.5% air and 7.5% CO2. […]
The growth of the culture was photometrically quantified after staining with crystal violet as a measure for the cell number and the vitality of the cells was determined with the MTT-test whose reaction depends on living cells with active mitochondria. Based on dose response curves, the IC50-values were calculated which are also used in the following Table 3 for characterization of the individual substance activity: […]

Regarding `O=C(CCc1cccnc1)NCCCCC1CCN(C(c2ccccc2)c2ccccc2)CC1` [K22.097, N-[4-(1-diphenylmethylpiperidin-4-yl)-butyl]-3-(pyridin-3-yl)-propionamide], the Leukocyte number was 6,900 per μl in the data set with NMRI mice (2 × 100 mg/kg K22.097 orally + 2 × 500 mg/kg nicotinamide intraperitoneally, day 7); 1,100 per μl with NMRI mice (2 × 100 mg/kg K22.097 orally over 4 days, blood picture 7 days after beginning of treatment); 5,900 per μl in the data set on NMRI mice (2 × 120 mg/kg K22.097 orally + 2 × 500 mg/kg nicotinamide intraperitoneally, day 7); 500 per μl in the data set on NMRI mice (2 × 120 mg/kg K22.097 orally over 4 days, blood picture 7 days after beginning of treatment). Further, the IC50 with lymphocytes (read-out: IC50-Value for K22.097, mouse spleen lymphocytes, + 10 mM nicotinamide) is greater than 1 µM; in the data set on lymphocytes (read-out: IC50-Value for K22.097, mouse spleen lymphocytes, K22.097 alone), 0.001 µM; with THP-1 cells (THP-1, read-out: IC50-Value for K22.097, THP-1 cells, + 0.1 mM nicotinic acid), greater than 10 µM; with THP-1 cells (THP-1, read-out: IC50-Value for K22.097, THP-1 cells, + 1 mM nicotinamide), greater than 10 µM; in the data set with THP-1 cells (THP-1, read-out: IC50-Value for K22.097, THP-1 cells, K22.097 alone), 0.01 µM; in data set [1] (read-out: IC50-Value for K22.097, primary intestine cryptic cells, + 1 mM nicotinamide), greater than 10 µM. Further, in data set [1] (read-out: IC50-Value for K22.097, primary intestine cryptic cells, K22.097 alone), the IC50 amounted to 0.1 µM.
`NC(=O)c1cccnc1` [nicotinamide, reference compound]: in the data set on NMRI mice (mouse, in vivo, ip, 500 mg/kg), the Leukocyte number is 4,800 per μl. For the same compound, in the data set on THP-1 cells, the “effect on the growth-inhibiting effect of K22.097” value is “abrogated”.
In the case of `O=C(C=Cc1cccnc1)NCCCCC1CCN(C(=O)c2ccccc2)CC1` [K22.175, N-[4-(1-benzoylpiperidin-4-yl)-butyl]-3-(pyridin-3-yl)-acrylamide], the IC50 with THP-1 cells (THP-1, THP-1 cells, + 0.1 mM nicotinic acid, read-out: IC50-Value for K22.175) is greater than 0.03 µM; in the data set on THP-1 cells (THP-1, THP-1 cells, + 1 mM nicotinamide, read-out: IC50-Value for K22.175), greater than 0.03 µM; in the data set with THP-1 cells (THP-1, THP-1 cells, K22.175 alone, read-out: IC50-Value for K22.175), 0.0005 µM.
For `O=C(O)c1cccnc1` [nicotinic acid, reference compound], the “effect on the growth-inhibiting effect of K22.097” value with THP-1 cells is “abrogated”.

Usually IC50 stands for the midpoint of a concentration-inhibition curve.

These data come from patent US20100227896A1, “USE OF VITAMIN PP COMPOUNDS” (ASTELLAS DEUTSCHLAND GMBH, priority 1998, published 2010).
